Results taken from article PMC10457970, “HIV-1 Integrase Inhibition Activity by Spiroketals Derived from Plagius flosculosus, an Endemic Plant of Sardinia (Italy) and Corsica (France)” (Pharmaceuticals, 2023).
Several values for one entry are separate records, joined by “and”; a condition that tells them apart may be missing. Identical values can stand only once.

How the values were obtained:
[1] = target: HIV-1 IN–LEDGF interaction (Human immunodeficiency virus type 1 group M subtype B, UniProt P04585); experiment: biochemical; type: binding
Experimental: Recombinant His-IN was pre-incubated for 30 min at room temperature in the presence of the tested compounds in a mixture reaction composed of 150 mM NaCl, 2 mM MgCl2, 0.1% Nonidet P-40, 1 mg/mL BSA, and 25 mM Tris pH 7.4 [12, 48]. After this time, FLAG-LEDGF was added and the mixture was incubated for 30 min at room temperature. A mixture of two specific antibodies (anti-His6-XL665 and anti-FLAG-EuCryptate) was then added to the reaction and incubated for 4 h at 4 °C.

HIV-1 IN multimerization = system: T1, HIV-1 IN multimerization; type: binding; conditions: concentration for 50% of the multimerization increase
T1 construct: His and FLAG-tagged IN enzymes were added in a buffer containing 25 mM Tris pH 7.4; made in house; host or cells: Escherichia coli BL21 (DE3)
Experimental: (§1) This IN–IN binding assay allows the verification of higher-order, aberrant IN multimerization or IN–IN subunit exchange. Briefly, His and FLAG-tagged IN enzymes were added in a buffer containing 25 mM Tris pH 7.4, 150 mM NaCl, 2 mM MgCl2, 0.1% Nonidet P-40, and 1 mg/mL BSA [12, 48] with different concentrations of compounds, and incubated for 2.5 h at room temperature. After this time, a mixture of two specific antibodies (anti-His6-XL665 and anti-FLAG-EuCryptate) was added to the reaction and incubated at room temperature for 3 h. The HTRF signal was recorded as described in the previous paragraph.
(§2) The analysis of the signal in order to evaluate the aberrant IN multimerization and interference with the IN–IN subunit exchange or functional IN–IN interactions was performed as described above.

[2] = target: T2, HIV-1 IN in the presence of LEDGF/p75 cellular cofactor (Human immunodeficiency virus type 1 group M subtype B, UniProt P04585); experiment: HTRF LEDGF-dependent HIV-1 IN activity assay; type: biochemical; conditions: pure compounds; mean ± SD of three independent experiments
T2 construct: Recombinant 6xHis IN protein, FLAG-IN, His-LEDGF and FLAG-LEDGF were expressed in Escherichia coli strain BL21 (DE3); made in house; host or cells: Escherichia coli BL21 (DE3)
Experimental: (§3) Recombinant 6xHis IN protein, FLAG-IN, His-LEDGF and FLAG-LEDGF were expressed in Escherichia coli strain BL21 (DE3) and purified as previously described. His-tagged p66/p51 HIV-1 RT was expressed in E. coli strain M15 and purified as previously described.
(§4) The evalaution of 3′-processing and strand-transfer IN reactions in the presence or in the absence of recombinant LEDGF/p75 cellular cofactor were performed as described previously. Briefly, recombinant IN was pre-incubated for 1 h at room temperature, in a buffer containing 20 mM HEPES pH 7.5, 1 mM DTT, 1% Glycerol, 20 mM MgCl2, 0.05% Brij-35 and 0.1 mg/mL BSA and increasing concentrations of the tested compounds.
(§5) Then, 9 nM Biotin3′-DNA donor substrate 50 nM 5′-Cy5-DNA acceptor substrate and 50 nM LEDGF/p75 protein (when required) were added to this reaction and incubated at 37 °C for 90 min.

[3] = system: HIV-1 wild-type reference strain NL4-3; experiment: Anti-HIV-1 activity in TZM-bl cell line; type: cell-based; conditions: 48 h
Experimental: The antiviral activity of the investigated compound was evaluated by measuring the IC50 values against the HIV-1 wild-type reference strain NL4-3 in a TZM-bl cell line-based phenotypic assay, as previously published. Briefly, 15,000 cells/well were infected with the wild-type NL4-3 strain at multiplicity of infection (MOI) of 0.1 in the presence of serial diluitions of the drug in a 96-well plate format. […] Each compound was tested in duplicate and tested in two independent experiments. After 48 h, the cells were detached with the Glo-Lysis buffer (Promega, Madison, WI, USA), and the Bright-Glo Luciferase reagent (Promega) was added to each well as indicated by the manufacturer. Finally, the relative luminescence units were measured using the GloMax Discover instrument (Promega) as previously described and processed with GraphPad software to calculate half-maximal inhibitory concentration (IC50) values.

[4] = Cytotoxicity, CellTiter-Glo 2.0; type: cell-based; conditions: human, TZM-bl cells
Experimental: (§6) Cytotoxicity was determined by the CellTiter-Glo 2.0 Luminescent Cell Viability Assay (Promega) according to the manufacturer’s protocol. Briefly, 15,000 cells/well of Tzm-bl were exposed to serial diluition of the drug and after 48 h, cell viability was calculated by measuring cellular ATP through a luciferase-based chemical reaction. The luminescent signal obtained from cells treated with serial dilution of the tested compounds, or the control (DMSO), was measured using the GloMax® Discover Multimode Microplate Reader (Promega) and processed with GraphPad PRISM software to calculate the half-maximal cytotoxic concentration (CC50). The DMSO curve, used as a control, was added in each plate and SPK-3 was tested in duplicate. The non-toxic dose corresponding to 90–100% cell viability was used as the maximum concentration in the antiviral assays.

TZM-bl cells = experiment: Cytotoxicity, CellTiter-Glo 2.0; type: cell-based; conditions: 48 h
Experimental: as §6

[5] = target: T3, HIV-1 RT-associated RNase H (Human immunodeficiency virus type 1 group M subtype B, UniProt P04585); experiment: RT-associated RNase H assay; type: biochemical; conditions: pure compounds; mean ± SD of three independent experiments
T3 construct: His-tagged p66/p51 HIV-1 RT was expressed in E. coli strain M15; His; made in house; host or cells: Escherichia coli M15
Experimental: as §3
The HIV-1 RNase H activity was determined as described by Esposito et al.. Briefly, 100 µL of volume of reaction containing 50 mM Tris HCl pH 7.8, 6 mM MgCl2, 1 mM DTT, 80 mM KCl, hybrid RNA/DNA (5′-[…]-3′-Fluorescein, 5′-[…]-3′-Dabcyl), and 3.8 nM RT was incubated for 1 h at 37 °C. The reaction was stopped by the addition of EDTA and measured with a plate reader at 490/528 nm.

[6] = Compound UV–VIS spectra in the presence of MgCl2 (chelation); type: physicochemical; conditions: 6 mM MgCl2, UV–VIS 250–600 nm
Experimental: The ability of compounds to chelate the MgCl2 was measured using 15% ethanol and 15 mM Tris HCl pH 7.8 (in 1 mL of volume). The UV–VIS spectrum was recorded, before and after the addition of 6 mM MgCl2, from 250 nm to 600 nm.

[7] = target: T4, HIV-1 IN in the absence of LEDGF (Human immunodeficiency virus type 1 group M subtype B, UniProt P04585); experiment: biochemical; type: biochemical
T4 construct: Recombinant 6xHis IN protein, FLAG-IN, His-LEDGF and FLAG-LEDGF were expressed in Escherichia coli strain BL21 (DE3); made in house; host or cells: Escherichia coli BL21 (DE3)
Experimental: as §3, §4, §5

[8] = target: HIV-1 IN–IN subunit exchange (Human immunodeficiency virus type 1 group M subtype B, UniProt P04585); experiment: biochemical; type: binding
Experimental: as §1, §2

Structure (SMILES) | IC50 [2] | CC50 at 48 h [4] | IC50 [5] | shift in the maximum of absorbance in the presence of Mg2+ [6] | also measured
CC#CC#C/C=C1/O[C@@]2(OC=C[C@H]2OC(C)=O)[C@@H](O)[C@@H]1Cl [SPK3, flosculin A] | 1.46 ± 0.16 µM | 50 µM | 3.6 ± 0.6 µM | 3 nm | IN–LEDGF Binding IC50 [1]: did not inhibit; IC50 ([1]; read-out: IN–LEDGF Binding IC50): > 100 µM; IN Multimerization MI50 (HIV-1 IN multimerization): 1 µM and 1.00 ± 0.01 µM; EC50 inhibiting HIV-1 viral replication ([3]; NL4-3, TZM-bl, two independent experiments): did not inhibit; CC50 (TZM-bl cells): 50.1 ± 4.3 µM; IC50 ([7]; absence of LEDGF, read-out: LEDGF-Independent IN Activity IC50): 27.3 ± 2.3 µM; decrease in potency on HIV-1 IN in the absence vs presence of LEDGF/p75 ([7]; ratio LEDGF-independent / LEDGF-dependent IC50): 18.7 fold; IC50 [8]: > 100 µM; IN–IN Subunit Exchange IC50 [8]: without any effect
CCOC(=O)C(=O)CC(=O)/C=C/c1cccn1Cc1ccc(F)cc1 [RDS1643, reference compound] |  |  |  | 16 nm | 
CC#CC#C/C=C1\C=CC2(CCCO2)O1 (stereo not shown) [SPK1, tonghaosu] | 1.69 ± 0.38 µM |  | 10 ± 5.4 µM | 3.5 nm | 
CC#CC#C/C=C1\C=CC2(OC=CC2OC(C)=O)O1 (stereo not shown) [SPK2] | 14.7 ± 0.3 µM |  | 20 ± 6.1 µM | 4.5 nm | 
Cc1nnc(C(=O)NC(C)(C)c2nc(C(=O)NCc3ccc(F)cc3)c(O)c(=O)n2C)o1 [Raltegravir, reference compound] |  | > 100 µM |  |  | EC50 ([3]; Human immunodeficiency virus 1, NL43, TZM-bl, read-out: EC50 inhibiting HIV-1 viral replication): 0.0087 µM
